This assay in a line: High Throughput Inhibition Assay: A high throughput assay was developed to screen for fascin specific inhibitors. Purified polymerized F-actin with or without fascin were mixed and incubated to allow actin bundle formation. F-actin polymers were then bound to the poly-D-lysine coated plates. After extensive washes, F-actin polymers were visualized by labeling them with Alexa Fluor 488 phalloidin. Four images were taken from each well and the average fiber length was analyzed for each tested compound.

The IC50 is the concentration at which inhibition is half-maximal. Low values mean greater potency, high ones weaker potency. `O=C(Cn1cnc2c(cnn2C2CCS(=O)(O)(O)C2)c1=O)Nc1ccc(Cl)cc1` (stereo unspecified) registered an IC50 of 4.3 µM.

The record behind these values is ChEMBL document CHEMBL5728313, “Methods for inhibiting fascin” (2021).
